Source: PMC7523345 (Investigational new drugs, 2018)
Entries after “also recorded” stand apart in the source; their conditions may differ.

Assay: Phase I dose escalation study: safety, tolerability, DLT and MTD
Format: in vivo

In the case of `Cc1cccc2c1NC(=O)[C@@H](NC(=O)[C@H](CCC(F)(F)F)[C@H](CCC(F)(F)F)C(N)=O)N=C2c1cccc(F)c1` [BMS-986115], the “Vision blurred (drug related AE, all grades)” value (Arm B BIW 8 mg (N = 8)) is reported as 1 (13) n (%), the “Vomiting (drug related AE, Grade 3 and 4)” value (Arm B BIW 8 mg (N = 8)) is reported as 0 n (%) and the “Vomiting (drug related AE, all grades)” value (Arm B BIW 8 mg (N = 8)) is reported as 4 (50) n (%). For the same compound, the “Weight decreased (drug related AE, all grades)” value (Arm B BIW 8 mg (N = 8)) was 0 n (%), the “No. of patients with DLTs” value (Arm B BIW 8 mg, 6 DLT evaluable patients) was 2 and the “Abdominal distension (drug related AE, all grades)” value (Arm B BIW Total (N = 12)) was 1 (8) n (%). For the same compound, the “Abdominal pain (drug related AE, Grade 3 and 4)” value (Arm B BIW Total (N = 12)) was 0 n (%), the “Abdominal pain (drug related AE, all grades)” value (Arm B BIW Total (N = 12)) was 1 (8) n (%) and the “Blood creatinine increased (drug related AE, all grades)” value (Arm B BIW Total (N = 12)) was 1 (8) n (%). The “Colitis (drug related AE, Grade 3 and 4)” value (Arm B BIW Total (N = 12)) was 0 n (%), the “Cough (drug related AE, Grade 3 and 4)” value (Arm B BIW Total (N = 12)) was 0 n (%) and the “Cough (drug related AE, all grades)” value (Arm B BIW Total (N = 12)) was 1 (8) n (%). For the same compound, the “Decreased Appetite (drug related AE, Grade 3 and 4)” value (Arm B BIW Total (N = 12)) was 1 (8) n (%), the “Decreased Appetite (drug related AE, all grades)” value (Arm B BIW Total (N = 12)) was 5 (42) n (%) and the “Dehydration (drug related AE, Grade 3 and 4)” value (Arm B BIW Total (N = 12)) was 1 (8) n (%). For the same compound, the “Dehydration (drug related AE, all grades)” value (Arm B BIW Total (N = 12)) was 2 (17) n (%), the “Dermatitis acneiform (drug related AE, all grades)” value (Arm B BIW Total (N = 12)) was 0 n (%) and the “Diarrhoea (drug related AE, Grade 3 and 4)” value (Arm B BIW Total (N = 12)) was 3 (25) n (%). For the same compound, the “Diarrhoea (drug related AE, all grades)” value (Arm B BIW Total (N = 12)) was 8 (67) n (%), the “Dry mouth (drug related AE, all grades)” value (Arm B BIW Total (N = 12)) was 1 (8) n (%) and the “Dry skin (drug related AE, all grades)” value (Arm B BIW Total (N = 12)) was 2 (17) n (%). The “Dysgeusia (drug related AE, all grades)” value (Arm B BIW Total (N = 12)) was 2 (17) n (%), the “Dyspepsia (drug related AE, all grades)” value (Arm B BIW Total (N = 12)) was 1 (8) n (%) and the “Dysphonia (drug related AE, all grades)” value (Arm B BIW Total (N = 12)) was 1 (8) n (%). For the same compound, the “Fatigue (drug related AE, Grade 3 and 4)” value (Arm B BIW Total (N = 12)) was 0 n (%), the “Fatigue (drug related AE, all grades)” value (Arm B BIW Total (N = 12)) was 6 (50) n (%) and the “Flatulence (drug related AE, all grades)” value (Arm B BIW Total (N = 12)) was 3 (25) n (%). For the same compound, the “Hypocalcaemia (drug related AE, Grade 3 and 4)” value (Arm B BIW Total (N = 12)) was 1 (8) n (%), the “Hypocalcaemia (drug related AE, all grades)” value (Arm B BIW Total (N = 12)) was 1 (8) n (%) and the “Hypokalaemia (drug related AE, Grade 3 and 4)” value (Arm B BIW Total (N = 12)) was 0 n (%). The “Hypokalaemia (drug related AE, all grades)” value (Arm B BIW Total (N = 12)) was 3 (25) n (%), the “Hyponatraemia (drug related AE, Grade 3 and 4)” value (Arm B BIW Total (N = 12)) was 1 (8) n (%) and the “Hyponatraemia (drug related AE, all grades)” value (Arm B BIW Total (N = 12)) was 1 (8) n (%). The “Hypophosphataemia (drug related AE, Grade 3 and 4)” value (Arm B BIW Total (N = 12)) was 6 (50) n (%), the “Hypophosphataemia (drug related AE, all grades)” value (Arm B BIW Total (N = 12)) was 7 (58) n (%) and the “Ileus (drug related AE, Grade 3 and 4)” value (Arm B BIW Total (N = 12)) was 0 n (%). The “Increased upper airway secretion (drug related AE, all grades)” value (Arm B BIW Total (N = 12)) was 3 (25) n (%), the “Laryngeal pain (drug related AE, all grades)” value (Arm B BIW Total (N = 12)) was 0 n (%) and the “Leucocytosis (drug related AE, Grade 3 and 4)” value (Arm B BIW Total (N = 12)) was 1 (8) n (%). For the same compound, the “Mouth ulceration (drug related AE, all grades)” value (Arm B BIW Total (N = 12)) was 1 (8) n (%), the “Nausea (drug related AE, Grade 3 and 4)” value (Arm B BIW Total (N = 12)) was 1 (8) n (%) and the “Nausea (drug related AE, all grades)” value (Arm B BIW Total (N = 12)) was 7 (58) n (%). For the same compound, the “Pruritus (drug related AE, Grade 3 and 4)” value (Arm B BIW Total (N = 12)) was 0 n (%), the “Pruritus (drug related AE, all grades)” value (Arm B BIW Total (N = 12)) was 3 (25) n (%) and the “Pulmonary embolism (drug related AE, Grade 3 and 4)” value (Arm B BIW Total (N = 12)) was 0 n (%). For the same compound, the “Rash (drug related AE, all grades)” value (Arm B BIW Total (N = 12)) was 3 (25) n (%), the “Rash maculopapular (drug related AE, all grades)” value (Arm B BIW Total (N = 12)) was 3 (25) n (%) and the “Sinusitis (drug related AE, all grades)” value (Arm B BIW Total (N = 12)) was 0 n (%). The “Urticaria (drug related AE, Grade 3 and 4)” value (Arm B BIW Total (N = 12)) was 0 n (%), the “Vision blurred (drug related AE, all grades)” value (Arm B BIW Total (N = 12)) was 1 (8) n (%) and the “Vomiting (drug related AE, Grade 3 and 4)” value (Arm B BIW Total (N = 12)) was 0 n (%). For the same compound, the “Vomiting (drug related AE, all grades)” value (Arm B BIW Total (N = 12)) was 4 (33) n (%), the “Weight decreased (drug related AE, all grades)” value (Arm B BIW Total (N = 12)) was 0 n (%) and the “Patients with dose limiting toxicities” value (Arm B BIW, all dose levels) was 2 patients. The “Treatment-related SAEs, description” value (Arm B BIW, one line per subject) was “Gr 3 diarrhoea; also recorded: Gr 3 nausea, dehydration and decreased appetite”, the “Maximum Tolerated Dose (MTD)” value (Arm B, twice weekly (BIW) oral dosing) was “not established” and the Treatment-related deaths (all 36 patients) was “no treatment-related deaths”. For the same compound, the “Subjects who discontinued due to treatment-related AEs” value (all 36 subjects) was 5 subjects, the “Subjects who discontinued treatment due to AEs” value (all 36 subjects) was 25% and the “Subjects with treatment-related SAEs” value (all 36 subjects) was 22%. The “Subjects with SAEs” value (all 36 subjects, overall) was 50%, the “Hypokalaemia, treatment-related Gr 3 or 4 AE” value (all patients) was 11% and the “Hyponatraemia, treatment-related Gr 3 or 4 AE” value (all patients) was 6%. For the same compound, the “Nausea, treatment-related Gr 3 or 4 AE” value (all patients) was 11%, the “Decreased appetite, treatment related AE” value (all patients, all grades) was 36% and the “Diarrhoea, treatment related AE” value (all patients, all grades) was 72%. The “Hypokalaemia, treatment related AE” value (all patients, all grades) was 28%, the “Hypophosphataemia, treatment related AE” value (all patients, all grades) was 64% and the “Nausea, treatment related AE” value (all patients, all grades) was 61%. For the same compound, the “Rash, treatment related AE” value (all patients, all grades) was 31% and the “Diarrhoea, AE regardless of causality” value (all treated subjects) was 72%.
